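Cells were grown in 96-well plates and exposed to each compound for 48 hours at five concentrations; endpoints were interpolated linearly between bracketing concentrations, or set to the highest concentration if not reached. GI50 marks 50% less growth.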 Calls of active or inactive are those of the source. Cut-off read from the data, not from the text of the source: active = GI50 up to about 1.1 µM and inactive = higher.
How the values were obtained:
Assay in all cases: NCI anticancer screen, dose series, 48 h
SNB-19 = tested on: SNB-19
IGROV-1 = tested on: IGROV-1
NCI-H460 = tested on: NCI-H460
HOP-62 = tested on: HOP-62
M14 = tested on: M14
ACHN = tested on: ACHN
MCF7 = tested on: MCF7
RXF 393 = tested on: RXF 393
OVCAR-5 = tested on: OVCAR-5
SK-OV-3 = tested on: SK-OV-3
HCT-15 = tested on: HCT-15
KM12 = tested on: KM12
NCI/ADR-RES = tested on: NCI/ADR-RES
SR = tested on: SR
PC-3 = tested on: PC-3
Malme-3M = tested on: Malme-3M
HOP-92 = tested on: HOP-92
TK-10 = tested on: TK-10
UACC-62 = tested on: UACC-62
NCI-H23 = tested on: NCI-H23
HCT-116 = tested on: HCT-116
SK-MEL-5 = tested on: SK-MEL-5
UACC-257 = tested on: UACC-257
Hs-578T = tested on: Hs-578T
SF-268 = tested on: SF-268
DU-145 = tested on: DU-145
UO-31 = tested on: UO-31
U-251 = tested on: U-251
LOX IMVI = tested on: LOX IMVI
OVCAR-3 = tested on: OVCAR-3
SN12C = tested on: SN12C
NCI-H522 = tested on: NCI-H522
CCRF-CEM = tested on: CCRF-CEM
BT-549 = tested on: BT-549
A549 = tested on: A549
SK-MEL-28 = tested on: SK-MEL-28
A498 = tested on: A498
HT-29 = tested on: HT-29
MDA-MB-435 = tested on: MDA-MB-435
T47D = tested on: T47D
OVCAR-4 = tested on: OVCAR-4
SF-295 = tested on: SF-295
HL-60 = tested on: HL-60
COLO 205 = tested on: COLO 205
K562 = tested on: K562
MDA-MB-231 = tested on: MDA-MB-231
MOLT-4 = tested on: MOLT-4
SK-MEL-2 = tested on: SK-MEL-2
EKVX = tested on: EKVX
NCI-H226 = tested on: NCI-H226
CAKI-1 = tested on: CAKI-1
HCC 2998 = tested on: HCC 2998
SF-539 = tested on: SF-539
OVCAR-8 = tested on: OVCAR-8
786-0 = tested on: 786-0
RPMI-8226 = tested on: RPMI-8226
SNB-75 = tested on: SNB-75
MDA-N = tested on: MDA-N

Measured: GI50

CN1CCN(C(=O)CCC(=O)Nc2cc3c(c4ccccc24)-c2ccc4ccccc4c2C3)CC1
inactive: SNB-19 2140 nM | IGROV-1 1150 nM | NCI-H460 1820 nM | HOP-62 1690 nM | M14 1450 nM | ACHN 2120 nM | MCF7 1510 nM | RXF 393 1730 nM | OVCAR-5 1670 nM | SK-OV-3 1600 nM | KM12 1550 nM | NCI/ADR-RES 2210 nM | SR 1790 nM | PC-3 1640 nM | Malme-3M 2030 nM | HOP-92 1730 nM | TK-10 1730 nM | UACC-62 1700 nM | NCI-H23 1970 nM | HCT-116 1550 nM | SK-MEL-5 1600 nM | UACC-257 1740 nM | Hs-578T 2630 nM | SF-268 1800 nM | DU-145 1770 nM | UO-31 1650 nM | U-251 2040 nM | LOX IMVI 1770 nM | OVCAR-3 1630 nM | SN12C 1790 nM | NCI-H522 1630 nM | CCRF-CEM 2080 nM | BT-549 1350 nM | A549 1960 nM | SK-MEL-28 1790 nM | A498 13800 nM | HT-29 1720 nM | MDA-MB-435 1510 nM | T47D 1700 nM | OVCAR-4 1500 nM | SF-295 1710 nM | HL-60 2000 nM | COLO 205 1600 nM | K562 1910 nM | MDA-MB-231 1260 nM | MOLT-4 1770 nM | SK-MEL-2 1970 nM | EKVX 1670 nM | NCI-H226 1760 nM | CAKI-1 1530 nM | HCC 2998 1370 nM | SF-539 1730 nM | OVCAR-8 2180 nM | 786-0 1690 nM | RPMI-8226 1960 nM
1820 nM: HCT-15

Cc1cc(/N=C/c2c(CO)cnc(C)c2O)c(/N=C/c2c(CO)cnc(C)c2O)cc1C.[Zn+2]
inactive: SNB-19 > 100000 nM | IGROV-1 > 100000 nM | NCI-H460 > 100000 nM | HOP-62 > 100000 nM | M14 > 100000 nM | ACHN > 100000 nM | KM12 > 100000 nM | NCI/ADR-RES > 100000 nM | HOP-92 > 100000 nM | TK-10 > 100000 nM | UACC-62 > 100000 nM | HCT-116 > 100000 nM | SK-MEL-5 > 100000 nM | Hs-578T > 100000 nM | UO-31 > 100000 nM | LOX IMVI > 100000 nM | SNB-75 > 100000 nM | NCI-H522 > 100000 nM | BT-549 > 100000 nM | A549 > 100000 nM | A498 > 100000 nM | HT-29 > 100000 nM | MDA-N > 100000 nM | OVCAR-4 > 100000 nM | SF-295 > 100000 nM | COLO 205 > 100000 nM | MDA-MB-231 > 100000 nM | MOLT-4 > 100000 nM | SK-MEL-2 > 100000 nM | NCI-H226 > 100000 nM | CAKI-1 > 100000 nM | HCC 2998 > 100000 nM | SF-539 > 100000 nM | OVCAR-8 > 100000 nM | 786-0 > 100000 nM

Source: ChEMBL document CHEMBL1201862, “PubChem BioAssay data set” (2004)
